Results from BindingDB's records for doi:10.1016/j.ejmech.2014.09.084 (University of Florence, 2014).

Tests used:
[1] = Modulatory activity at P-gp assessed as doxorubicin IC50 in human K562/DOX cells at 0.1 uM after 72 hrs by MTT assay (Rvb doxorubicin alone IC50 = 2.00 +/- 0.24 uM)
[2] = Modulatory activity at P-gp assessed as doxorubicin IC50 in human K562 cells at 3 uM after 72 hrs by MTT assay (Rvb doxorubicin alone IC50 = 0.023 +/- 0.004 uM)
[3] = Modulatory activity at P-gp assessed as doxorubicin IC50 in human K562/DOX cells at 1 uM after 72 hrs by MTT assay (Rvb doxorubicin alone IC50 = 2.00 +/- 0.24 uM)
[4] = Modulatory activity at P-gp assessed as doxorubicin IC50 in human K562 cells at 0.1 uM after 72 hrs by MTT assay (Rvb doxorubicin alone IC50 = 0.023 +/- 0.004 uM)
[5] = Modulatory activity at P-gp assessed as doxorubicin IC50 in human K562/DOX cells at 3 uM after 72 hrs by MTT assay (Rvb doxorubicin alone IC50 = 2.00 +/- 0.24 uM)
[6] = Modulatory activity at P-gp assessed as doxorubicin IC50 in human K562 cells at 1 uM after 72 hrs by MTT assay (Rvb doxorubicin alone IC50 = 0.023 +/- 0.004 uM)

IC50 [1]	IC50 [2]	IC50 [3]	IC50 [4]	IC50 [5]	IC50 [6]	SMILES
300 nM	18 nM	60 nM	30 nM	35 nM		COc1cc(/C=C/C(=O)OCCCCCN(C)CCCOC(=O)c2c3ccccc3cc3ccccc23)cc(OC)c1OC
830 nM	19 nM	230 nM	22 nM	63 nM	41 nM	COc1cc(/C=C/C(=O)OCCCCN(C)CCCCOC(=O)c2c3ccccc3cc3ccccc23)cc(OC)c1OC
620 nM	51 nM	320 nM	11 nM	170 nM	12 nM	COc1cc(/C=C/C(=O)OCCCN(C)CCCCCOC(=O)c2c3ccccc3cc3ccccc23)cc(OC)c1OC
